In assay [1] the target is T1, 1D-myo-inositol 2-acetamido-2-deoxy-alpha-D-glucopyranoside deacetylase (Mycobacterium tuberculosis, UniProt P9WJN3).
T1 sequence (P9WJN3 whole entry): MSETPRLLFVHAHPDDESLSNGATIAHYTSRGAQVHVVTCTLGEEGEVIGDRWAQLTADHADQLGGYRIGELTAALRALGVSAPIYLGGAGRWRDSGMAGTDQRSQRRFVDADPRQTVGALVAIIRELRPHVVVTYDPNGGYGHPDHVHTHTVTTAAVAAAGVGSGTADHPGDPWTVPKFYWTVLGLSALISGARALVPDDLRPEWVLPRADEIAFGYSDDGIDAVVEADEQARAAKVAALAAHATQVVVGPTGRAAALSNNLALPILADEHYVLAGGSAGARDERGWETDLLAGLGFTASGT
The assay can be described thus: Inhibition of Mycobacterium tuberculosis MshB by fluorescence-detected HPLC assay.

Assay [2] deals with T2, Mycothiol S-conjugate amidase (Mycobacterium tuberculosis, UniProt P9WJN1).
T2 sequence (P9WJN1 whole entry): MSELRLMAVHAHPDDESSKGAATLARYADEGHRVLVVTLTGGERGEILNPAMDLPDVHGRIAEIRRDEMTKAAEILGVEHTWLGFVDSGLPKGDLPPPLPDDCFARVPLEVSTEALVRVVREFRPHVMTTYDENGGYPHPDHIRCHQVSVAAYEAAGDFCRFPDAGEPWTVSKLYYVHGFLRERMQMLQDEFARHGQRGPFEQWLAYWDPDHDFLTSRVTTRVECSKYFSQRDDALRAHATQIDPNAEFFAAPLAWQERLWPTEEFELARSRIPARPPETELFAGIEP
The assay can be described thus: Inhibition of Mycobacterium tuberculosis MCA by fluorescence-detected HPLC assay.

Data on 6 molecules can be found in ChEMBL document CHEMBL1138332, “Synthesis of natural product-inspired inhibitors of Mycobacterium tuberculosis mycothiol-associated enzymes: the first inhibitors of GlcNAc-Ins deacetylase” (J Med Chem, 2007).

For the molecule `O=S(=O)(CCCCc1ccccc1)N[C@H]1[C@H](O)[C@@H](O)[C@H](CO)O[C@H]1SC1CCCCC1` (single isomer, unassigned), the figures for the IC50 in assay [1] and in assay [2] were 101 µM and 120 µM, respectively.
The like results for `O=C(N[C@H]1[C@H](O)[C@@H](O)[C@H](CO)O[C@H]1SC1CCCCC1)C1COC(c2cccc(F)c2)=N1` (single isomer, unassigned) were, in that order, 28 µM and > 200 µM.
With `O=C(N[C@H]1[C@H](O)[C@@H](O)[C@H](CO)O[C@H]1SC1CCCCC1)C1CCOC(c2cccc(F)c2)=N1` (single isomer, unassigned), the IC50 in assay [1] is 10 µM; in assay [2], > 200 µM.
The like results for `CC(C)(C)C(=O)ON[C@@H](CCc1ccccc1)C(=O)N[C@H]1[C@H](O)[C@@H](O)[C@H](CO)O[C@H]1SC1CCCCC1` were, in that order, > 200 µM and 145 µM.
For the molecule `O=S(=O)(/C=C/CCc1ccccc1)N[C@H]1[C@H](O)[C@@H](O)[C@H](CO)O[C@H]1SC1CCCCC1` (single isomer, unassigned), the IC50 in assay [1] was 105 µM; in assay [2], 90 µM.
The like results for `O=C(N[C@H]1[C@H](O)[C@@H](O)[C@H](CO)O[C@H]1SC1CCCCC1)c1ccc(-c2ccc(Cl)cc2)o1` (single isomer, unassigned) were, in that order, 7 µM and 33 µM.
